Several values for one entry are separate records, joined by “and”; a condition that tells them apart may be missing. Equal values may be shown once. Read-outs that look alike come from different tables or passages of the source.
Legend:
[1] = Animal experiment, first pig: systemic paclitaxel, plasma and lung tissue concentration
Procedure: (§2) A first pig was given 4.28 mg/kg/hr of paclitaxel systemically, i.e., intravenously over three hours. […] Next, the lung tissue in a second pig was saturated with paclitaxel via the airways by an endoluminal approach. […] The drug solution dwelled in the airways of the second animal for approximately 20 minutes to ensure saturation of the lung tissue before being evacuated from the airways.

in vivo [2] = settings: pig, intravenous
Text: (§3) The necropsy for tissue collection after the last plasma sample focused on drug concentration and included: lung, lung lymph nodes, colon, and the colon lymph nodes.
(§4) Spectra were compared to the validated protocol and standard curve generated for the study.
(§5) The acute animal (19P0837) and the chronic animal (19P0997) were sent to necropsy for gross pathology and tissue harvesting. Three full thickness lung tissue samples from each of the cranial (cran) caudal (caud) and middle (mid) lobes were frozen and sent for analytical analysis.

[3] = GMX002 lung tissue PTX concentration after local lung lavage; type: in vivo, porcine; settings: for concentration at 20 min: pig
Procedure: A blood sample was also collected at 0, 5, 10, 15, and 20 minutes.
as §4
The acute animal (19P1241) and the chronic animal (19P0884) were sent to necropsy for gross pathology and tissue harvesting. Three full thickness lung tissue sample from each of the cranial (cran) caudal (caud) and middle (mid) lobes of the untreated left lung and three lung tissue samples from each of the cranial (cran) caudal (caud) and middle (mid) lobes of the treated right lung were taken from the 20 minute animal, frozen and sent for analytical analysis.

[4] = GMX001 plasma PTX concentration after systemic infusion (LC/MS); type: in vivo, porcine; settings: pig; for concentration at 3 h: systemic infusion 175 mg/m^2 over 3 hours; for Cmax: iv, 175 mg/m2, systemic
Procedure: The systemic studies were denoted GMX001 and local administration studies GMX002.
For GMX001 (systemic), anatomy permitting, 2 animals were used and divided into a 3 hour animal and a 72 hour animal.
(§1) For GMX001, both animals underwent surgery to place two (2) CVL catheters, 1 for infusion and 1 for plasma collection. The animals were allowed to recover and stabilize.

[5] = Animal experiment, second pig: endoluminal airway paclitaxel, lung tissue concentration; settings: soaking solution 75.8 μM in airways, approximately 20 minutes dwell
Procedure: as §2

[6] = type: in vivo, porcine
Procedure: as §1
Animal 19P0837 had 2 mL of blood collected at baseline and after the 3 hours infusion. […] Blood was processed and sent to Analytical for processing. […] The animal survived to the scheduled term with signs of discomfort as per technician's observations. The animal had blisters on the chest at day 3, prior to term.
Gross examination of the lungs, colon, jejunum, regional lymph nodes, and collateral structures was conducted. […] Lungs were also slightly heavy. […] Small intestine appeared bloated diffusely. The lumen of darkened jejunum section appeared mottled dark purple to black. There were no other abnormal findings noted at necropsy.

[7] = GMX001 colon tissue PTX concentration after systemic infusion; type: in vivo, porcine; settings: 3 hour animal 19P0837; for concentration at 3 h: pig, intravenous, 4.28 mg/kg/hr, Colon PTX concentration
Text: Three samples each were taken from the rectum, transverse (tran) colon, ascending (asc) colon, descending (desc) colon and colon lymph nodes (LN).

[8] = GMX001 lung and lung lymph node PTX concentration after systemic infusion
Text: as §3, §4, §5

[9] = GMX002 plasma PTX concentration after local lung lavage; type: in vivo, porcine
Procedure: For GMX002 (local), anatomy permitting, 2 animals were divided into a 20 minute animal and a 72 hour animal.
The necropsy for tissue collection was completed to obtain information on the drug concentration within the lung and lung lymph nodes.
The chronic (72 hour) animal in the study was recovered with blood plasma samples collected immediately after infusion, followed by additional blood plasma collection occurring at 5, 15, and 30 minutes following infusion. More blood plasma was collected after 1, 3, 5, 9, 24, and 72 hours. The necropsy for tissue collection took place 72 hours after infusion with drug concentration measurements in the lung and lung lymph nodes. Histopathology was done on the lung.
Animal 19P0844 was infused with 700 mL. Animal 19P1241 was infused with approximately 900 mL.
Animal 19P1241 had 2 mL of blood collected at baseline and at 5, 10, 15 and 20 minutes of infusion. Plasma was collected for processing. Animal 19P0884 had 2 mL of blood collected at baseline, 5, 10, 15 and 20 minutes of infusion. Following infusion, blood was collected at 5, 15, 30 minutes with more blood being collected after 1, 3, 5, 9, 24, and 72 hours.

[10] = humans, cited from earlier work
[11] = pig, in vivo
Procedure: (§6) Porcine studies were performed similarly to as described in Example A but using levofloxacin as the drug agent. Only local administration to the lung was performed.

in vivo [12] = settings: pig
Procedure: as §6

[13] = Porcine local levofloxacin: pathology and side effects; type: in vivo
Procedure: as §6

[14] = humans; systemic administration; cited from earlier work
[15] = lung tissue (RT mid lung), 175 mg/m^2
[16] = local lavage of right lung, 20 min, animal 19P1241
[17] = systemic, 3 hour animal 19P0837
[18] = systemic, 72 hour animal 19P0997

Question: Which results are given for `CC(=O)O[C@H]1C(=O)[C@@]2(C)[C@H]([C@H](OC(=O)c3ccccc3)[C@]3(O)C[C@H](OC(=O)[C@H](O)[C@@H](NC(=O)c4ccccc4)c4ccccc4)C(C)=C1C3(C)C)[C@]1(OC(C)=O)CO[C@@H]1C[C@@H]2O` [PTX, 5β,20-Epoxy-1,2α,4,7β,10β,13α-hexahydroxytax-11-en-9-one 4,10-diacetate 2-benzoate 13-ester with (2R,3S)-N-benzoyl-3-phenylisoserine]?
Answer: maximum plasma concentration MPC ([1]; 4.28 mg/kg/hr intravenously over three hours): 78.58 µM; average lung tissue concentration TC ([1]; samples immediately after systemic delivery): 37.9 µM; concentration at 72 h (in vivo [2]; lung lymph node, 175 mg/m^2): 4340 ng/g; concentration at 3 h (in vivo [2]; lung tissue (RT caud lung), 175 mg/m^2): 42900 ng/g; concentration at 3 h (in vivo [2]; lung tissue (RT cran lung), 175 mg/m^2): 32200 ng/g; concentration at 3 h (in vivo [2]; [15]): 32000 ng/g; concentration at 72 h (in vivo [2]; [15]): 3560 ng/g; concentration at 72 h (in vivo [2]; lung, right caudal lobe, 4.28 mg/kg/hr): 2720 ng/g; Lung PTX concentration, RT caud lung [3, 16]: 35300 ng/g tissue and 29800 ng/g tissue; Lung PTX concentration, RT cran lung [3, 16]: 32100 ng/g tissue and 38400 ng/g tissue; Lung PTX concentration, RT Mid Lung ([3]; local lavage of right lung, 20 min, animal 19P1241, middle lobe believed blocked): 760 ng/g tissue and 557 ng/g tissue; lower drug concentration with local vs systemic administration for same lung tissue uptake ([3]; local vs systemic): 37 fold; concentration at 20 min ([3]; lung tissue, other: local lung lavage (right lung, via catheter), 32000 ng/mL (lavage solution), PTX in lung tissue achieved, local administration (GMX002)): > 30000 ng/g; concentration at 20 min ([3]; lung tissue, other: local lung lavage (right lung, via catheter), 32000 ng/mL (lavage solution), PTX per g of lung tissue, local, acute animal): ~32000 ng/g; concentration at 20 min ([3]; lung tissue, other: local lung lavage (right lung, via catheter), 32000 ng/mL (lavage solution), highest PTX level in lung tissue, local administration): 38400 ng/g; concentration at 20 min ([3]; lung, caudal lobe of the treated right lung, 32000 ng/mL, Lung PTX concentration, RT Caud Lung, local lavage of right lung, 20 min, animal 19P1241): 34600 ng/g; concentration at 20 min ([3]; lung, middle lobe of the treated right lung, 32000 ng/mL, Lung PTX concentration, RT Mid Lung, local lavage of right lung, 20 min, animal 19P1241, middle lobe believed blocked): 749 ng/g; concentration at 3 h ([4]; intravenous, 175 mg/m^2, Blood PTX concentration, animal 19P0837, 3 hr): 57000 ng/mL; concentration at 3 h ([4]; intravenous, 175 mg/m^2, Blood PTX concentration, animal 19P0997, 3 hr): 67100 ng/mL; concentration at 4 h ([4]; intravenous, 175 mg/m^2, Blood PTX concentration, systemic infusion, animal 19P0997, 4 hr): 43100 ng/mL; concentration at 6 h ([4]; intravenous, 175 mg/m^2, Blood PTX concentration, systemic infusion, animal 19P0997, 6 hr): 28500 ng/mL; concentration at 8 h ([4]; intravenous, 175 mg/m^2, Blood PTX concentration, systemic infusion, animal 19P0997, 8 hr): 27100 ng/mL; concentration at 12 h ([4]; intravenous, 175 mg/m^2, Blood PTX concentration, systemic infusion, animal 19P0997, 12 hr): 20500 ng/mL; concentration at 24 h ([4]; intravenous, 175 mg/m^2, Blood PTX concentration, systemic infusion, animal 19P0997, 24 hr): 9110 ng/mL; concentration at 72 h ([4]; intravenous, 175 mg/m^2, Blood PTX concentration, systemic infusion, animal 19P0997, 72 hr): 713 ng/mL; Cmax ([4]; 3 hour animal): 57000 ng/mL; Cmax ([4]; 72 hour animal): 67100 ng/mL; average lung tissue concentration TC [5]: 40.4 µM; early mortality ([6]; GMX001): no early mortality; distress with infusion ([6]; pig, in vivo): showed distress; terminal clinical pathology ([6]; pig, in vivo): decrease in WBC, neutrophils, lymphocytes and platelet counts; Colon PTX concentration, asc colon [7]: 16900 ng/g and 13200 ng/g; Colon PTX concentration, colon LN [7]: 12700 ng/g and 17700 ng/g; Colon PTX concentration, desc colon [7]: 12700 ng/g and 12800 ng/g; Colon PTX concentration, rectum [7]: 14100 ng/g and 16000 ng/g; Colon PTX concentration, tran colon [7]: 14600 ng/g and 13200 ng/g; concentration at 3 h ([7]; ascending colon, asc colon): 10800 ng/g; concentration at 3 h ([7]; colon lymph nodes, colon LN): 19600 ng/g; concentration at 3 h ([7]; descending colon, desc colon): 12500 ng/g; concentration at 3 h ([7]; rectum): 14400 ng/g; concentration at 3 h ([7]; transverse colon, tran colon): 13500 ng/g; decrease of lung PTX concentration 72 hours following systemic administration ([8]; 3 hour animal 19P0837 vs 72 hour animal 19P0997): approximately 3.5 fold; PTX in lung tissue achieved ([8]; systemic administration (GMX001)): greater than 30000 ng/g; lung tissue concentration range ([8]; systemic drug delivery at 3 hours): 12,500-41,200 ng/g; Lung PTX concentration, RT caud lung [8, 17]: 28800 ng/g and 31600 ng/g; Lung PTX concentration, RT cran lung [8, 17]: 27000 ng/g and 27300 ng/g; Lung PTX concentration, RT mid lung [8, 17]: 41200 ng/g and 28300 ng/g; Lung PTX concentration, RT caud lung [8, 18]: 2070 ng/g; Lung PTX concentration, RT cran lung [8, 18]: 2660 ng/g; Lung PTX concentration, RT mid lung [8, 18]: 2590 ng/g; Lung PTX concentration, lung LN ([8]; systemic, 72 hour animal 19P0997, lung lymph node samples): 4240 ng/g; plasma Cmax local / systemic ([9]; […]57000 ng/mL): 0.048%; plasma Cmax local / systemic ([9]; […]67100 ng/mL): 0.041%; plasma Cmax for local administration as % of plasma Cmax with systemic administration ([9]; local vs systemic): less than 0.05%; plasma Cmax lower with local than with systemic administration ([9]; local vs systemic): more than 2000 fold; time of peak plasma concentration after end of lung infusion ([9]; local, 32,000 ng/mL, after the lung was cleared of the drug): 5 min; time of peak concentration of PTX in plasma after infusion initiation ([9]; local, 72 hour animal 19P0844): 25; Cmax ([9]; pig, plasma, other: local lung lavage (right lung, via catheter), 32000 ng/mL (lavage solution), local, 5 minutes post local infusion, read-out: maximum concentration in plasma (Cmax)): 27.6 ng/mL; early mortality (GMX002): no early mortality; Clinical observations (pig, in vivo): GMX002: Unremarkable; Physical examination (pig, in vivo): GMX002: Unremarkable; adverse events / clinical observations (pig, in vivo): did not have any adverse events; distress or complications during administration (pig, in vivo): did not show signs of distress or complications; gross necropsy findings (pig, in vivo): no other abnormal findings noted at necropsy that could be attributed to the treatment; terminal clinical pathology (pig, in vivo): clinical markers comparable to baseline

Question: With `N.N.[Cl][Pt][Cl]` [cisplatin] as the molecule, how does the Cmax ([10]; systemic administration, read-out: Typical plasma Cmax) read?
Answer: 30 µM

Question: And the “typical lung tissue Cmax” value ([10]; systemic delivery)?
Answer: 170 µM

Question: With `C[C@H]1COc2c(N3CCN(C)CC3)c(F)cc3c(=O)c(C(=O)O)cn1c23` [levofloxacin] as the molecule, how does the Sputum levels [11] read?
Answer: 32 µg/mL

Question: What about the Cmax (in vivo [12]) of the same molecule?
Answer: 291 ng/mL

Question: What about the “lung damage at pathology” value ([13]; following local delivery) of the same molecule?
Answer: No lung damage was observed

Question: What about the side effects ([13]; local delivery) of the same molecule?
Answer: no significant side effects

Question: What about the “Typical plasma Cmax” value [14] of the same molecule?
Answer: 5600 ng/mL

Reference: US20230073301A1, “TISSUE DOSING FOR INTRALUMINAL LOCAL DRUG DELIVERY” (ISOLA THERAPEUTICS, INC., priority 2020, published 2023)
